{
  "source": "patent US9321790B2",
  "about": "“Pyrimidinone derivatives as antimalarial agents” (SANOFI, priority 2012, dated 2016)",
  "key": {"[1]": {"test_system": "Plasmodium falciparum (strain NF54)", "assay": "Antimalarial activity test: growth of Plasmodium falciparum in infected human erythrocytes, 3H-hypoxanthine incorporation", "type": "cell-based", "details": "strain NF54 sensitive to chloroquine, 72 h total incubation", "protocol": "The compounds according to the invention underwent pharmacological trials to determine their inhibitory effect on the growth of Plasmodium falciparum (strain NF54 sensitive to inhibition with chloroquine) in an in vitro test using infected human erythrocytes. The growth of the parasites is measured via the incorporation of tritiated hypoxanthine compared with the incorporation in the absence of drug. The tests are performed in 96-well microplates (Falcon™ 96-well microtiter plates, ref. No. 353072) in RPMI 1640 solutions (10.44 g/l) (without hypoxanthine) with HEPES (5.94 g/l), NaHCO3 (2.1 g/l), neomycin ([…])+AlbumaxR II (5 g/l) supplemented with human erythrocytes with a final hematocrit of 1.25% and a final parasitemia of 0.15%.\nThe stock solution of the compounds is prepared at 10 mg/mL in DMSO. For the test, fresh solutions at the desired concentrations are prepared in RPMI medium. For the test, 100 μl of compound are mixed with 100 μl of infected blood. For the determination of the IC50 values, the compounds are tested in twofold serial dilution.\nThe plates are incubated at 37° C. under a humid atmosphere with 93% N2, 4% CO2 and 3% O2. After 48 hours, 50 μl of ^3H-hypoxanthine (=0.5 μCi) in RPMI medium are added to each well and incubation is continued for a further 24 hours. Next, the plates are washed with distilled water and the cell lyzate is transferred onto fiberglass filters. The filters are dried and the radioactivity is determined by liquid scintillation. The results in cpm are converted into percentages of inhibition. The inhibitory activity is given by the concentration that inhibits 50% of the growth of the parasite relative to a control without compound."}, "human PI3Kα": {"target": "human PI3Kα (Homo sapiens (Human), UniProt P42336)", "sequence (P42336 whole entry)": "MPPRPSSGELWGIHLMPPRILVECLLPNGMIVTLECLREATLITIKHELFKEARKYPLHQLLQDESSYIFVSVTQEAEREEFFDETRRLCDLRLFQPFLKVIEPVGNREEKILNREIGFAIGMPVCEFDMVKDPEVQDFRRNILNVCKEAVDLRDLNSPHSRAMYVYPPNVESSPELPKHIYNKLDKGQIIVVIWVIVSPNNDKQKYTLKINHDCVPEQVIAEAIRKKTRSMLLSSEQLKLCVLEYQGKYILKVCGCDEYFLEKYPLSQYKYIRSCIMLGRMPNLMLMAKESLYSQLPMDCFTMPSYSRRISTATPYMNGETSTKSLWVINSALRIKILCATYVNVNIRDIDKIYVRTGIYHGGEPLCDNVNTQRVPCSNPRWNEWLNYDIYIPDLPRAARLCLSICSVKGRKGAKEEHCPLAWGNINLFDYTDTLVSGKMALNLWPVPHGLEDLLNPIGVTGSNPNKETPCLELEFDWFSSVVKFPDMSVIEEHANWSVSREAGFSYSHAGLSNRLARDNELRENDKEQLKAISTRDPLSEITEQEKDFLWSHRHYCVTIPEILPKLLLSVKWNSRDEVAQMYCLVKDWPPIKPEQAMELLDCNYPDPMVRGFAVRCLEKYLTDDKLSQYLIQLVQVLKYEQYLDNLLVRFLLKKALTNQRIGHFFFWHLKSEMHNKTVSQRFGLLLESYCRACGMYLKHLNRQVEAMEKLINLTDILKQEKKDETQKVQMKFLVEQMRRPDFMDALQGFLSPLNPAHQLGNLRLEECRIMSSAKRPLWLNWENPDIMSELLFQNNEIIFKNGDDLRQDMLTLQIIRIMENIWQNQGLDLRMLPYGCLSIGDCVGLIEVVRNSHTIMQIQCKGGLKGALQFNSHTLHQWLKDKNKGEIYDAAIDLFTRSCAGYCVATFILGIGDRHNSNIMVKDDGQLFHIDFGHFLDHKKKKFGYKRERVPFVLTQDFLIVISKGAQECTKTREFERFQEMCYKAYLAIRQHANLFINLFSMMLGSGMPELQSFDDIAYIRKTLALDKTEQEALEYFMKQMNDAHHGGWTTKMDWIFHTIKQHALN", "sequence (P27986 whole entry partner)": "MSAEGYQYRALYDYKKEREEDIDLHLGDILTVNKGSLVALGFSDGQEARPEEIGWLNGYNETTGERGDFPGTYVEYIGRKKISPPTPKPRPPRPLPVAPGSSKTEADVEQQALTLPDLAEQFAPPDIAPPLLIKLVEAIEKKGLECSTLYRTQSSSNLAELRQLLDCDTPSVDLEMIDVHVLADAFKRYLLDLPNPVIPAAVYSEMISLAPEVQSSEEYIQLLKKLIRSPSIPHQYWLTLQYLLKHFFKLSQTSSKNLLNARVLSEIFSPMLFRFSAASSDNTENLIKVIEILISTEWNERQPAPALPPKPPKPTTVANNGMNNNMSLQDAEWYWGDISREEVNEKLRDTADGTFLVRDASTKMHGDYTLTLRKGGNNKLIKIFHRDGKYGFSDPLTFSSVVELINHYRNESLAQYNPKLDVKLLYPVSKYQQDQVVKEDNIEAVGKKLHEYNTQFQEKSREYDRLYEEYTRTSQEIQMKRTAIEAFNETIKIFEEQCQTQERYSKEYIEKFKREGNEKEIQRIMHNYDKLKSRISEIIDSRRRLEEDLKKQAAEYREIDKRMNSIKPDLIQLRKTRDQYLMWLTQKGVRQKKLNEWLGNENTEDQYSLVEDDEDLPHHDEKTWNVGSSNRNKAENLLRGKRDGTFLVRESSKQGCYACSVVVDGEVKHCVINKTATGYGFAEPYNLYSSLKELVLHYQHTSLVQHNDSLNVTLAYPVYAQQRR", "assay": "Human PI3Kα activity test (luciferin/luciferase ATP consumption, KinaseGlo)", "type": "biochemical", "details": "PI3Kα (p110α/p85α), 50 μM PIP2, 2 μM ATP, 90 minutes; read-out: IC50 Human PI3Kα", "experimental": "The test uses a luciferin/luciferase system to measure the concentration of ATP and its consumption during the enzymatic reaction.\nAfter 90 minutes, the reaction is quenched by adding 20 μl/well of KinaseGlo reagent (Promega V6713). After 10 minutes in the dark, the luminescence is read using a PHERAStar microplate reader (reading at 0.8 sec/well)."}, "[2]": {"details": "Plasmodium falciparum, Erythrocyte"}},
  "data": [
    {"compound": "O=C(CN1c2nc(N3C[C@@H]4C[C@H]3CO4)cc(=O)n2CC[C@H]1C(F)(F)F)c1ccc(NCCO)nc1", "note": "[Compound 14, (8S)-9-{2-[6-(2-hydroxyethylamino)pyrid-3-yl]-2-oxoethyl}-2-(1S,4S)-2-oxa-5-azabicyclo[2.2.1]hept-5-yl-8-trifluoromethyl-6,7,8,9-tetrahydropyrimido[1,2-a]pyrimidin-4-one]", "values": [
      {"measurement": "IC50", "setting": "[1]; [2]", "value": 70, "unit": "nM"},
      {"measurement": "IC50", "setting": "human PI3Kα", "value": "> 10000", "unit": "nM"}
    ]},
    {"compound": "Cc1cncc(C(=O)CN2c3nc(N4C[C@@H]5C[C@H]4CO5)cc(=O)n3CC[C@H]2C(F)(F)F)c1", "note": "[Compound 15, (8S)-9-[2-(5-methylpyrid-3-yl)-2-oxoethyl]-2-(1S,4S)-2-oxa-5-azabicyclo[2.2.1]hept-5-yl-8-trifluoromethyl-6,7,8,9-tetrahydropyrimido[1,2-a]pyrimidin-4-one]", "values": [
      {"measurement": "IC50", "setting": "[1]; [2]", "value": 150, "unit": "nM"},
      {"measurement": "IC50", "setting": "human PI3Kα", "value": "> 7200", "unit": "nM"}
    ]},
    {"compound": "Cc1cncc(C(=O)CN2c3nc(N4C[C@@H]5C[C@H]4CO5)cc(=O)n3C[C@@]2(C)C(F)(F)F)c1", "note": "[Compound 16, 2-methyl-1-[2-(5-methylpyrid-3-yl)-2-oxoethyl]-7-(1S,4S)-2-oxa-5-azabicyclo[2.2.1]hept-5-yl-2-((S)-trifluoromethyl)-2,3-dihydro-1H-imidazo[1,2-a]pyrimidin-5-one]", "values": [
      {"measurement": "IC50", "setting": "[1]; [2]", "value": "> 200", "unit": "nM"},
      {"measurement": "IC50", "setting": "human PI3Kα", "value": "> 7200", "unit": "nM"}
    ]},
    {"compound": "Cc1ccc(C(=O)CN2c3nc(N4C[C@@H]5C[C@H]4CO5)cc(=O)n3C[C@@]2(C)C(F)(F)F)cn1", "note": "[Compound 17, 2-methyl-1-[2-(6-methylpyrid-3-yl)-2-oxoethyl]-7-(1S,4S)-2-oxa-5-azabicyclo[2.2.1]hept-5-yl-2-((S)-trifluoromethyl)-2,3-dihydro-1H-imidazo[1,2-a]pyrimidin-5-one]", "values": [
      {"measurement": "IC50", "setting": "[1]; [2]", "value": 160, "unit": "nM"},
      {"measurement": "IC50", "setting": "human PI3Kα", "value": "≥ 10000", "unit": "nM"}
    ]},
    {"compound": "Cc1ncccc1C(=O)CN1c2nc(N3C[C@@H]4C[C@H]3CO4)cc(=O)n2C[C@@]1(C)C(F)(F)F", "note": "[Compound 18, 2-Methyl-1-[2-(2-methylpyrid-3-yl)-2-oxoethyl]-7-(1S,4S)-2-oxa-5-azabicyclo[2.2.1]hept-5-yl-2-((S)-trifluoromethyl)-2,3-dihydro-1H-imidazo[1,2-a]pyrimidin-5-one]", "values": [
      {"measurement": "IC50", "setting": "[1]", "value": 93, "unit": "nM"},
      {"measurement": "IC50", "setting": "human PI3Kα", "value": "> 10000", "unit": "nM"}
    ]},
    {"compound": "Cc1ncccc1C(=O)CN1c2nc(N3C[C@@H]4C[C@H]3CO4)cc(=O)n2CC[C@H]1C(F)(F)F", "note": "[Compound 19, (8S)-9-[2-(2-methylpyrid-3-yl)-2-oxoethyl]-2-(1S,4S)-2-oxa-5-azabicyclo[2.2.1]hept-5-yl-8-trifluoromethyl-6,7,8,9-tetrahydropyrimido[1,2-a]pyrimidin-4-one]", "values": [
      {"measurement": "IC50", "setting": "[1]; [2]", "value": 24, "unit": "nM"},
      {"measurement": "IC50", "setting": "human PI3Kα", "value": "> 10000", "unit": "nM"}
    ]},
    {"compound": "Cc1ccncc1C(=O)CN1c2nc(N3C[C@@H]4C[C@H]3CO4)cc(=O)n2CC[C@H]1C(F)(F)F", "note": "[Compound 20, (8S)-9-[2-(4-methylpyrid-3-yl)-2-oxoethyl]-2-(1S,4S)-2-oxa-5-azabicyclo[2.2.1]hept-5-yl-8-trifluoromethyl-6,7,8,9-tetrahydropyrimido[1,2-a]pyrimidin-4-one]", "values": [
      {"measurement": "IC50", "setting": "[1]; [2]", "value": 35, "unit": "nM"},
      {"measurement": "IC50", "setting": "human PI3Kα", "value": "> 10000", "unit": "nM"}
    ]},
    {"compound": "C[C@@]1(C(F)(F)F)Cn2c(nc(N3C[C@@H]4C[C@H]3CO4)cc2=O)N1CC(=O)c1cccnc1", "note": "[Compound 21, 2-methyl-7-(1S,4S)-2-oxa-5-azabicyclo[2.2.1]hept-5-yl-1-(2-oxo-2-pyrid-3-ylethyl)-2-((S)-trifluoromethyl)-2,3-dihydro-1H-imidazo[1,2-a]pyrimidin-5-one]", "values": [
      {"measurement": "IC50", "setting": "[1]; [2]", "value": 82, "unit": "nM"},
      {"measurement": "IC50", "setting": "human PI3Kα", "value": "> 10000", "unit": "nM"}
    ]},
    {"compound": "O=C(CN1c2nc(N3C[C@@H]4C[C@H]3CO4)cc(=O)n2CC[C@H]1C(F)(F)F)c1ccc(NC2CC2)nc1", "note": "[Compound 22, (8S)-9-[2-(6-Cyclopropylaminopyrid-3-yl)-2-oxoethyl]-2-(1S,4S)-2-oxa-5-azabicyclo[2.2.1]hept-5-yl-8-trifluoromethyl-6,7,8,9-tetrahydropyrimido[1,2-a]pyrimidin-4-one]", "values": [
      {"measurement": "IC50", "setting": "[1]; [2]", "value": "> 200", "unit": "nM"},
      {"measurement": "IC50", "setting": "human PI3Kα", "value": "> 10000", "unit": "nM"}
    ]},
    {"compound": "CCNC(=O)Nc1ccc(CCN2c3nc(N4C[C@@H]5C[C@H]4CO5)cc(=O)n3CC[C@H]2C(F)(F)F)cc1", "note": "[Compound 23, 1-ethyl-3-{4-[2-((8S)-8-(1S,4S)-2-oxa-5-azabicyclo[2.2.1]hept-5-yl-6-oxo-2-trifluoromethyl-3,4-dihydro-2H,6H-pyrimido[1,2-a]pyrimidin-1-yl)ethyl]phenyl}urea]", "values": [
      {"measurement": "IC50", "setting": "[1]; [2]", "value": 3, "unit": "nM"},
      {"measurement": "IC50", "setting": "human PI3Kα", "value": 1040, "unit": "nM"}
    ]},
    {"compound": "CCNC(=O)Nc1ccc(CCN2c3nc(N4C[C@@H]5C[C@H]4CO5)cc(=O)n3C[C@@]2(C)C(F)(F)F)cc1", "note": "[Compound 24, 1-ethyl-3-(4-{2-[(1S,4S)-2-methyl-7-2-oxa-5-azabicyclo[2.2.1]hept-5-yl-5-oxo-2-((S)-trifluoromethyl)-2,3-dihydro-5H-imidazo[1,2-a]pyrimidin-1-yl]ethyl}phenyl)urea]", "values": [
      {"measurement": "IC50", "setting": "[1]; [2]", "value": 8, "unit": "nM"},
      {"measurement": "IC50", "setting": "human PI3Kα", "value": 2440, "unit": "nM"}
    ]},
    {"compound": "Cc1ncsc1CCN1c2nc(N3C[C@@H]4C[C@H]3CO4)cc(=O)n2CC[C@H]1C(F)(F)F", "note": "[Compound 25, (8S)-9-[2-(4-Methylthiazol-5-yl)ethyl]-2-(1S,4S)-2-oxa-5-azabicyclo[2.2.1]hept-5-yl-8-trifluoromethyl-6,7,8,9-tetrahydropyrimido[1,2-a]pyrimidin-4-one]", "values": [
      {"measurement": "IC50", "setting": "[1]; [2]", "value": "< 3.4", "unit": "nM"},
      {"measurement": "IC50", "setting": "human PI3Kα", "value": 1000, "unit": "nM"}
    ]},
    {"compound": "Cc1ncsc1CCN1c2nc(N3C[C@@H]4C[C@H]3CO4)cc(=O)n2C[C@@]1(C)C(F)(F)F", "note": "[Compound 26, 2-methyl-1-[2-(4-methylthiazol-5-yl)ethyl]-7-(1S,4S)-2-oxa-5-azabicyclo[2.2.1]hept-5-yl-2-((S)-trifluoromethyl)-2,3-dihydro-1H-imidazo[1,2-a]pyrimidin-5-one]", "values": [
      {"measurement": "IC50", "setting": "[1]; [2]", "value": 10, "unit": "nM"},
      {"measurement": "IC50", "setting": "human PI3Kα", "value": 2000, "unit": "nM"}
    ]},
    {"compound": "Cc1n[nH]c(C)c1CCN1c2nc(N3C[C@@H]4C[C@H]3CO4)cc(=O)n2CC[C@H]1C(F)(F)F", "note": "[Compound 27, (8S)-9-[2-(3,5-Dimethyl-1H-pyrazol-4-yl)ethyl]-2-(1S,4S)-2-oxa-5-azabicyclo[2.2.1]hept-5-yl-8-trifluoromethyl-6,7,8,9-tetrahydropyrimido[1,2-a]pyrimidin-4-one]", "values": [
      {"measurement": "IC50", "setting": "[1]; [2]", "value": "< 4.5", "unit": "nM"},
      {"measurement": "IC50", "setting": "human PI3Kα", "value": 1530, "unit": "nM"}
    ]},
    {"compound": "Cc1n[nH]c(C)c1CCN1c2nc(N3C[C@@H]4C[C@H]3CO4)cc(=O)n2C[C@@]1(C)C(F)(F)F", "note": "[Compound 28, 1-[2-(3,5-Dimethyl-1H-pyrazol-4-yl)ethyl]-2-methyl-7-(1S,4S)-2-oxa-5-azabicyclo[2.2.1]hept-5-yl-2-((S)-trifluoromethyl)-2,3-dihydro-1H-imidazo[1,2-a]pyrimidin-5-one]", "values": [
      {"measurement": "IC50", "setting": "[1]", "value": 9, "unit": "nM"},
      {"measurement": "IC50", "setting": "human PI3Kα", "value": 2260, "unit": "nM"}
    ]},
    {"compound": "CC(C)(C)C(=O)CN1c2nc(N3C[C@@H]4C[C@H]3CO4)cc(=O)n2CC[C@H]1C(F)(F)F", "note": "[Compound 29, (8S)-9-(3,3-dimethyl-2-oxobutyl)-2-(1S,4S)-2-oxa-5-azabicyclo[2.2.1]hept-5-yl-8-trifluoromethyl-6,7,8,9-tetrahydropyrimido[1,2-a]pyrimidin-4-one]", "values": [
      {"measurement": "IC50", "setting": "[1]; [2]", "value": 46, "unit": "nM"},
      {"measurement": "IC50", "setting": "human PI3Kα", "value": 7930, "unit": "nM"}
    ]},
    {"compound": "CC(C)(C)C(=O)CN1c2nc(N3C[C@@H]4C[C@H]3CO4)cc(=O)n2C[C@@]1(C)C(F)(F)F", "note": "[Compound 30, 1-(3,3-Dimethyl-2-oxobutyl)-2-methyl-7-(1S,4S)-2-oxa-5-azabicyclo[2.2.1]hept-5-yl-2-((S)-trifluoromethyl)-2,3-dihydro-1H-imidazo[1,2-a]pyrimidin-5-one]", "values": [
      {"measurement": "IC50", "setting": "[1]", "value": "> 240", "unit": "nM"},
      {"measurement": "IC50", "setting": "human PI3Kα", "value": "> 10000", "unit": "nM"}
    ]}
  ]
}
